How the values were obtained:
morningglory [1] = experiment: Test A postemergence; format: in vivo, Ipomoea spp.; conditions: Postemergence
In short: (§1)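 Visual injury rating, 0–100 (0 no effect, 100 complete control), vs untreated controls ~10 days after treatment in greenhouse. Pre: directed soil spray on seeded loam/sand. Post: 2–10 cm plants, 1–2 leaf stage. Formulation: non-phytotoxic solvent mix + surfactant.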

ducksalad = experiment: Test B flood; format: in vivo, Heteranthera limosa; conditions: 250 g ai/ha, visual rating on 0 to 100 scale (0 no effect, 100 complete control), 13 to 15 days
In short: (§2)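 Each compound is applied to the floodwater of pots holding 2-leaf seedlings, water standing 3 cm over the soil throughout. Plants stay in a greenhouse 13 to 15 days before visual scoring against controls from 0 (no effect) to 100 (complete control).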

oilseed rape = experiment: Test C preemergence; format: in vivo, Brassica napus
In short: (§3)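 Visual rating, 0–100 scale (0 no effect, 100 complete control), vs untreated controls after 13–15 d greenhouse. Pre: seeds in loam/sand, treated at sowing. Post: plants in peat-based mix, 1- to 4-leaf (2–18 cm). Solvent + surfactant formulation, non-phytotoxic.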

crabgrass, large [2] = experiment: Test C preemergence; format: in vivo, Digitaria sanguinalis
In short: as §3

morningglory [3] = experiment: Test C preemergence; format: in vivo, Ipomoea coccinea
In short: as §3

barnyardgrass [4] = experiment: Test A postemergence; format: in vivo, Echinochloa crus-galli; conditions: Postemergence
In short: as §1

chickweed = experiment: Test C postemergence; format: in vivo, Stellaria media
In short: as §3

nutsedge, yellow [5] = experiment: Test C postemergence; format: in vivo, Cyperus esculentus
In short: as §3

velvetleaf = experiment: Test C preemergence; format: in vivo, Abutilon theophrasti
In short: as §3

barnyardgrass [6] = experiment: Test C preemergence; format: in vivo, Echinochloa crus-galli; conditions: preemergence
In short: as §3

nutsedge, yellow [7] = experiment: Test C preemergence; format: in vivo, Cyperus esculentus
In short: as §3

crabgrass, large [8] = experiment: Test A preemergence; format: in vivo, Digitaria sanguinalis; conditions: preemergence
In short: as §1

rice = experiment: Test B flood; format: in vivo, Oryza sativa; conditions: 250 g ai/ha, visual rating on 0 to 100 scale (0 no effect, 100 complete control), 13 to 15 days
In short: as §2

[9] = 125 g ai/ha, 0 to 100 scale, 0 no effect, 100 complete control
[10] = 500 g ai/ha, 0 to 100 scale (0 no effect, 100 complete control)
[11] = Preemergence, rate head not shown (block before 16 g ai/ha), scale 0 to 100
[12] = preemergence, 62 g ai/ha, scale 0 to 100 (0 no effect, 100 complete control), 13 to 15 days
[13] = preemergence, 125 g ai/ha, 13 to 15 days, scale 0 to 100, 0 = no effect, 100 = complete control
[14] = preemergence, 250 g ai/ha, scale 0 to 100, 0 is no effect, 100 is complete control
[15] = Postemergence, 31 g ai/ha, visually evaluated after 13 to 15 days
[16] = postemergence, 62 g ai/ha, scale 0 to 100
[17] = postemergence, 250 g ai/ha, scale 0 to 100 (0 no effect, 100 complete control)
[18] = postemergence, 125 g ai/ha, scale 0 to 100, 0 no effect, 100 complete control

**Q.** Which “Morningglory plant response rating” value (morningglory [1]; [9]) does the source give for `CCc1cc(C(=O)NCC(F)(F)F)nn1Cc1ccnc(Br)c1` [Compound 224] here?
**A.** 30

**Q.** And the “Morningglory plant response rating” value (morningglory [1]; [10])?
**A.** 100

**Q.** And the “Plant response rating, Ducksalad” value (ducksalad)?
**A.** 75

**Q.** And the “Plant response rating, Oilseed Rape” value (oilseed rape; [11])?
**A.** 80

**Q.** And the “Oilseed Rape plant response rating” value (oilseed rape; [12])?
**A.** 90

**Q.** What about the “Plant response rating, Oilseed Rape” value (oilseed rape; [13]) of the same molecule?
**A.** 95

**Q.** And the “Oilseed Rape plant response rating” value (oilseed rape; [14])?
**A.** 95

**Q.** And the “Plant response rating, Crabgrass, Large” value (crabgrass, large [2]; [11])?
**A.** 100

**Q.** What about the “Crabgrass, Large plant response rating” value (crabgrass, large [2]; [12]) of the same molecule?
**A.** 100

**Q.** What about the “Plant response rating, Crabgrass, Large” value (crabgrass, large [2]; [13]) of the same molecule?
**A.** 100

**Q.** And the “Crabgrass, Large plant response rating” value (crabgrass, large [2]; [14])?
**A.** 100

**Q.** And the “Plant response rating, Morningglory” value (morningglory [3]; [11])?
**A.** 5

**Q.** What about the “Morningglory plant response rating” value (morningglory [3]; [12]) of the same molecule?
**A.** 10

**Q.** And the “Plant response rating, Morningglory” value (morningglory [3]; [13])?
**A.** 40

**Q.** What about the “Morningglory plant response rating” value (morningglory [3]; [14]) of the same molecule?
**A.** 100

**Q.** And the “Barnyardgrass plant response rating” value (barnyardgrass [4]; [9])?
**A.** 90

**Q.** What about the “Barnyardgrass plant response rating” value (barnyardgrass [4]; [10]) of the same molecule?
**A.** 100

**Q.** And the “Plant response rating (scale of 0 to 100 where 0 is no effect and 100 is complete control), Chickweed” value (chickweed; [15])?
**A.** 50

**Q.** What about the “Chickweed plant response rating” value (chickweed; [16]) of the same molecule?
**A.** 55

**Q.** And the “Plant response rating, Chickweed” value (chickweed; [17])?
**A.** 90

**Q.** And the “Plant response rating, Chickweed” value (chickweed; [18])?
**A.** 55

**Q.** What about the “Plant response rating (scale of 0 to 100 where 0 is no effect and 100 is complete control), Nutsedge, Yellow” value (nutsedge, yellow [5]; [15]) of the same molecule?
**A.** 0

**Q.** What about the “Nutsedge, Yellow plant response rating” value (nutsedge, yellow [5]; [16]) of the same molecule?
**A.** 0

**Q.** What about the “Plant response rating, Nutsedge, Yellow” value (nutsedge, yellow [5]; [17]) of the same molecule?
**A.** 5

**Q.** And the “Plant response rating, Nutsedge, Yellow” value (nutsedge, yellow [5]; [18])?
**A.** 5

**Q.** And the “Plant response rating, Velvetleaf” value (velvetleaf; [11])?
**A.** 40

**Q.** And the “Velvetleaf plant response rating” value (velvetleaf; [12])?
**A.** 65

**Q.** And the “Plant response rating, Velvetleaf” value (velvetleaf; [13])?
**A.** 100

**Q.** And the “Velvetleaf plant response rating” value (velvetleaf; [14])?
**A.** 100

**Q.** What about the “Barnyardgrass plant response rating” value (barnyardgrass [6]; 31 g ai/ha, visual rating, scale 0 to 100 (0 no effect, 100 complete control), 13 to 15 days) of the same molecule?
**A.** 25

**Q.** What about the “Barnyardgrass plant response rating” value (barnyardgrass [6]; 62 g ai/ha, scale 0 to 100 (0 no effect, 100 complete control), 13 to 15 days) of the same molecule?
**A.** 40

**Q.** What about the “Plant response rating, Barnyardgrass” value (barnyardgrass [6]; 125 g ai/ha, 13 to 15 days, scale 0 to 100, 0 = no effect, 100 = complete control) of the same molecule?
**A.** 100

**Q.** And the “Barnyardgrass plant response rating” value (barnyardgrass [6]; 250 g ai/ha, scale 0 to 100, 0 is no effect, 100 is complete control)?
**A.** 100

**Q.** What about the “Plant response rating, Nutsedge, Yellow” value (nutsedge, yellow [7]; [11]) of the same molecule?
**A.** 85

**Q.** And the “Nutsedge, Yellow plant response rating” value (nutsedge, yellow [7]; [12])?
**A.** 80

**Q.** And the “Plant response rating, Nutsedge, Yellow” value (nutsedge, yellow [7]; [13])?
**A.** 70

**Q.** And the “Nutsedge, Yellow plant response rating” value (nutsedge, yellow [7]; [14])?
**A.** 90

**Q.** What about the “Crabgrass, Large plant response rating (0 to 100 scale)” value (crabgrass, large [8]; 125 g ai/ha, visual injury approx. 10 days after treatment) of the same molecule?
**A.** 100

**Q.** What about the “Crabgrass, Large plant response rating” value (crabgrass, large [8]; 500 g ai/ha, visual injury after approx. 10 days, 0 to 100 scale (0 no effect, 100 complete control)) of the same molecule?
**A.** 100

**Q.** What about the “Plant response rating, Rice” value (rice) of the same molecule?
**A.** 20
